Experimental data from patent publication US8192962B2, “Processes for detecting toxic substances” (Daikin Industries, Ltd., priority 2001, dated 2012).

Test system: Metabolism protein genes
Experiment: DNA chip mRNA expression in yeast, metabolism protein genes (Table 7)
Type: cell-based, Saccharomyces cerevisiae S288C
Summary of the method: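 Chemical exposure: 2 h, log-phase S. cerevisiae S288C, YPD, 25° C., dose set to inhibit growth without death. Profiling: mRNA labeled by reverse transcription with Cy3- or Cy5-dUTP, hybridized to whole-genome array. Output: fluorescence ratio against untreated culture.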

CN(C)C(=S)SSC(=S)N(C)C [(10), Tetramethylthiuram disulfide]
level of expressed mRNA in the presence/in the absence of chemical substance (yeast gene YJR143C): 0.3 | The level of expressed mRNA in the presence of chemical substance/The level of expressed mRNA in the absence of chemical substance (yeast gene YJR148W): 3.0 | The level of expressed mRNA in the presence of chemical substance/The level of expressed mRNA in the absence of chemical substance (yeast gene YJR155W): 18.8 | The level of expressed mRNA in the presence of chemical substance/The level of expressed mRNA in the absence of chemical substance (yeast gene YKL001C): 3.4 | The level of expressed mRNA in the presence of chemical substance/The level of expressed mRNA in the absence of chemical substance (yeast gene YKL035W): 1.2 | level of expressed mRNA in the presence/in the absence of chemical substance (yeast gene YKL060C): 0.8 | The level of expressed mRNA in the presence of chemical substance/The level of expressed mRNA in the absence of chemical substance (yeast gene YKL091C): 3.2 | The level of expressed mRNA in the presence of chemical substance/The level of expressed mRNA in the absence of chemical substance (yeast gene YKL104C): 1.8 | level of expressed mRNA in the presence/in the absence of chemical substance (yeast gene YKL148C): 1.7 | The level of expressed mRNA in the presence of chemical substance/The level of expressed mRNA in the absence of chemical substance (yeast gene YKL152C): 1.5 | level of expressed mRNA in the presence/in the absence of chemical substance (yeast gene YKL157W): 1.9 | The level of expressed mRNA in the presence of chemical substance/The level of expressed mRNA in the absence of chemical substance (yeast gene YKL213C): 2.1 | The level of expressed mRNA in the presence of chemical substance/The level of expressed mRNA in the absence of chemical substance (yeast gene YKL215C): 1.9 | level of expressed mRNA in the presence/in the absence of chemical substance (yeast gene YKR034W): 0.6 | The level of expressed mRNA in the presence of chemical substance/The level of expressed mRNA in the absence of chemical substance (yeast gene YKR039W): 2.0 | The level of expressed mRNA in the presence of chemical substance/The level of expressed mRNA in the absence of chemical substance (yeast gene YLL058W): 3.6 | level of expressed mRNA in the presence/in the absence of chemical substance (yeast gene YLR006C): 1.1 | level of expressed mRNA in the presence/in the absence of chemical substance (yeast gene YLR044C): 1.2 | level of expressed mRNA in the presence/in the absence of chemical substance (yeast gene YLR056W): 0.5 | level of expressed mRNA in the presence/in the absence of chemical substance (yeast gene YLR058C): 0.1 | level of expressed mRNA in the presence/in the absence of chemical substance (yeast gene YLR081W): 2.2 | level of expressed mRNA in the presence/in the absence of chemical substance (yeast gene YLR089C): 0.8 | The level of expressed mRNA in the presence of chemical substance/The level of expressed mRNA in the absence of chemical substance (yeast gene YLR180W): 0.9 | The level of expressed mRNA in the presence of chemical substance/The level of expressed mRNA in the absence of chemical substance (yeast gene YLR273C): 2.4 | level of expressed mRNA in the presence/in the absence of chemical substance (yeast gene YLR284C): 0.9 | The level of expressed mRNA in the presence of chemical substance/The level of expressed mRNA in the absence of chemical substance (yeast gene YLR299W): 2.3 | The level of expressed mRNA in the presence of chemical substance/The level of expressed mRNA in the absence of chemical substance (yeast gene YLR300W): 0.5 | level of expressed mRNA in the presence/in the absence of chemical substance (yeast gene YLR304C): 2.2 | The level of expressed mRNA in the presence of chemical substance/The level of expressed mRNA in the absence of chemical substance (yeast gene YLR307W): 0.7 | The level of expressed mRNA in the presence of chemical substance/The level of expressed mRNA in the absence of chemical substance (yeast gene YLR348C): 1.3 | level of expressed mRNA in the presence/in the absence of chemical substance (yeast gene YLR354C): 0.9 | level of expressed mRNA in the presence/in the absence of chemical substance (yeast gene YLR372W): 0.1 | level of expressed mRNA in the presence/in the absence of chemical substance (yeast gene YML022W): 0.6 | The level of expressed mRNA in the presence of chemical substance/The level of expressed mRNA in the absence of chemical substance (yeast gene YML054C): 1.8 | The level of expressed mRNA in the presence of chemical substance/The level of expressed mRNA in the absence of chemical substance (yeast gene YML070W): 3.9 | The level of expressed mRNA in the presence of chemical substance/The level of expressed mRNA in the absence of chemical substance (yeast gene YML100W): 1.4 | The level of expressed mRNA in the presence of chemical substance/The level of expressed mRNA in the absence of chemical substance (yeast gene YMR008C): 0.6 | level of expressed mRNA in the presence/in the absence of chemical substance (yeast gene YMR011W): 0.7 | level of expressed mRNA in the presence/in the absence of chemical substance (yeast gene YMR015C): 0.3 | The level of expressed mRNA in the presence of chemical substance/The level of expressed mRNA in the absence of chemical substance (yeast gene YMR020W): 2.9 | level of expressed mRNA in the presence/in the absence of chemical substance (yeast gene YMR083W): 1.1 | The level of expressed mRNA in the presence of chemical substance/The level of expressed mRNA in the absence of chemical substance (yeast gene YMR105C): 2.9 | The level of expressed mRNA in the presence of chemical substance/The level of expressed mRNA in the absence of chemical substance (yeast gene YMR189W): 0.9 | level of expressed mRNA in the presence/in the absence of chemical substance (yeast gene YMR205C): 0.8 | level of expressed mRNA in the presence/in the absence of chemical substance (yeast gene YMR261C): 1.3 | The level of expressed mRNA in the presence of chemical substance/The level of expressed mRNA in the absence of chemical substance (yeast gene YMR271C): 4.4 | The level of expressed mRNA in the presence of chemical substance/The level of expressed mRNA in the absence of chemical substance (yeast gene YMR296C): 0.6 | level of expressed mRNA in the presence/in the absence of chemical substance (yeast gene YMR323W): 1.3 | The level of expressed mRNA in the presence of chemical substance/The level of expressed mRNA in the absence of chemical substance (yeast gene YNL012W): 3.2 | level of expressed mRNA in the presence/in the absence of chemical substance (yeast gene YNL025C): 1.8 | The level of expressed mRNA in the presence of chemical substance/The level of expressed mRNA in the absence of chemical substance (yeast gene YNL037C): 3.2 | The level of expressed mRNA in the presence of chemical substance/The level of expressed mRNA in the absence of chemical substance (yeast gene YNL045W): 1.1 | The level of expressed mRNA in the presence of chemical substance/The level of expressed mRNA in the absence of chemical substance (yeast gene YNL104C): 2.0 | The level of expressed mRNA in the presence of chemical substance/The level of expressed mRNA in the absence of chemical substance (yeast gene YNL106C): 1.4 | The level of expressed mRNA in the presence of chemical substance/The level of expressed mRNA in the absence of chemical substance (yeast gene YNL169C): 1.1 | level of expressed mRNA in the presence/in the absence of chemical substance (yeast gene YNL192W): 1.8 | The level of expressed mRNA in the presence of chemical substance/The level of expressed mRNA in the absence of chemical substance (yeast gene YNL231C): 1.3 | The level of expressed mRNA in the presence of chemical substance/The level of expressed mRNA in the absence of chemical substance (yeast gene YNL322C): 0.8 | The level of expressed mRNA in the presence of chemical substance/The level of expressed mRNA in the absence of chemical substance (yeast gene YNL331C): 36.3 | The level of expressed mRNA in the presence of chemical substance/The level of expressed mRNA in the absence of chemical substance (yeast gene YNL332W): 2.1 | The level of expressed mRNA in the presence of chemical substance/The level of expressed mRNA in the absence of chemical substance (yeast gene YNR002C): 1.6 | The level of expressed mRNA in the presence of chemical substance/The level of expressed mRNA in the absence of chemical substance (yeast gene YNR019W): 1.9 | The level of expressed mRNA in the presence of chemical substance/The level of expressed mRNA in the absence of chemical substance (yeast gene YNR033W): 4.2 | The level of expressed mRNA in the presence of chemical substance/The level of expressed mRNA in the absence of chemical substance (yeast gene YNR059W): 1.4 | The level of expressed mRNA in the presence of chemical substance/The level of expressed mRNA in the absence of chemical substance (yeast gene YOL058W): 15.7 | level of expressed mRNA in the presence/in the absence of chemical substance (yeast gene YOL086C): 1.2 | level of expressed mRNA in the presence/in the absence of chemical substance (yeast gene YOL108C): 0.9 | level of expressed mRNA in the presence/in the absence of chemical substance (yeast gene YOL116W): 1.8 | The level of expressed mRNA in the presence of chemical substance/The level of expressed mRNA in the absence of chemical substance (yeast gene YOL126C): 2.4 | The level of expressed mRNA in the presence of chemical substance/The level of expressed mRNA in the absence of chemical substance (yeast gene YOL143C): 1.0 | The level of expressed mRNA in the presence of chemical substance/The level of expressed mRNA in the absence of chemical substance (yeast gene YOL153C): 3.2 | level of expressed mRNA in the presence/in the absence of chemical substance (yeast gene YOL156W): 2.1 | The level of expressed mRNA in the presence of chemical substance/The level of expressed mRNA in the absence of chemical substance (yeast gene YOL165C): 23.3 | level of expressed mRNA in the presence/in the absence of chemical substance (yeast gene YOR002W): 0.9 | level of expressed mRNA in the presence/in the absence of chemical substance (yeast gene YOR085W): 0.6 | The level of expressed mRNA in the presence of chemical substance/The level of expressed mRNA in the absence of chemical substance (yeast gene YOR099W): 0.7 | level of expressed mRNA in the presence/in the absence of chemical substance (yeast gene YOR103C): 0.9 | level of expressed mRNA in the presence/in the absence of chemical substance (yeast gene YOR108W): 1.1 | level of expressed mRNA in the presence/in the absence of chemical substance (yeast gene YOR128C): 0.4 | The level of expressed mRNA in the presence of chemical substance/The level of expressed mRNA in the absence of chemical substance (yeast gene YOR130C): 1.7 | The level of expressed mRNA in the presence of chemical substance/The level of expressed mRNA in the absence of chemical substance (yeast gene YOR136W): 3.4 | level of expressed mRNA in the presence/in the absence of chemical substance (yeast gene YOR142W): 1.5 | level of expressed mRNA in the presence/in the absence of chemical substance (yeast gene YOR176W): 0.5 | level of expressed mRNA in the presence/in the absence of chemical substance (yeast gene YOR178C): 1.7 | The level of expressed mRNA in the presence of chemical substance/The level of expressed mRNA in the absence of chemical substance (yeast gene YOR221C): 1.7 | The level of expressed mRNA in the presence of chemical substance/The level of expressed mRNA in the absence of chemical substance (yeast gene YOR226C): 5.9 | level of expressed mRNA in the presence/in the absence of chemical substance (yeast gene YOR251C): 0.8 | The level of expressed mRNA in the presence of chemical substance/The level of expressed mRNA in the absence of chemical substance (yeast gene YOR336W): 1.5 | The level of expressed mRNA in the presence of chemical substance/The level of expressed mRNA in the absence of chemical substance (yeast gene YOR347C): 0.9 | level of expressed mRNA in the presence/in the absence of chemical substance (yeast gene YOR348C): 0.4 | The level of expressed mRNA in the presence of chemical substance/The level of expressed mRNA in the absence of chemical substance (yeast gene YPL017C): 6.7 | level of expressed mRNA in the presence/in the absence of chemical substance (yeast gene YPL028W): 0.8 | level of expressed mRNA in the presence/in the absence of chemical substance (yeast gene YPL057C): 1.4 | level of expressed mRNA in the presence/in the absence of chemical substance (yeast gene YPL135W): 2.8 | level of expressed mRNA in the presence/in the absence of chemical substance (yeast gene YPL148C): 1.5 | The level of expressed mRNA in the presence of chemical substance/The level of expressed mRNA in the absence of chemical substance (yeast gene YPR026W): 3.1 | level of expressed mRNA in the presence/in the absence of chemical substance (yeast gene YPR113W): 0.8 | level of expressed mRNA in the presence/in the absence of chemical substance (yeast gene YPR165W): 0.7 | The level of expressed mRNA in the presence of chemical substance/The level of expressed mRNA in the absence of chemical substance (yeast gene YPR167C): 9.0 | level of expressed mRNA in the presence/in the absence of chemical substance (yeast gene YPR183W): 0.6
